Results: US20220273829A1, “RADIOLABELED SUGARS FOR IMAGING OF FUNGAL INFECTIONS” (THE UNITED STATES OF AMERICA, as represented by the …, priority 2019, published 2022)
Entries after “also recorded” stand apart in the source; their conditions may differ. Like-named read-outs stand apart in the source and are kept apart here.

How the values were obtained:
[1] = system: bacteria; details: gram negative and gram positive; Ordonez et al. 2017; cited from earlier work
[2] = system: J774 macrophages; details: Ordonez et al. 2017; cited from earlier work
[3] = system: P. aeruginosa; details: Ordonez et al. 2017; cited from earlier work
[4] = system: A. fumigatus; assay: In vitro uptake of radiolabeled sugar in fungal cultures (retained radioactivity after incubation and washing); format: cell-based, Aspergillus fumigatus
Description: (§1) The inventors identified sugars and other molecules involved in the metabolic pathways of clinically-relevant fungal infections, and generated radiolabeled versions (3H or 14C) that were tested for in vitro uptake in bacteria (gram-negative, gram-positive, Pseudomonas aeruginosa), macrophages (J774 cell line) and m clinically-relevant fungal strains including Aspergillus, Rhizomucor, Cryptococcus and Candida albicans. Organisms and cells were exposed to the radiolabeled compounds and the in vitro uptake was measured (retained radioactivity after incubation and washing of the cultures measured using a beta counter). […] For the biodistribution and autoradiography studies showing specific uptake of the radioactive molecules by fungal-infected animals (i.e., retained radioactivity in the lungs in the infected animals but not in the control animals), the ligand(s) specific for each type of fungi was radiolabeled with 18F or other PET isotopes. Using the radiolabeled ligand(s), live PET imaging is performed on infected mice using a microPET/CT scanner. […] The images are reconstructed and analyzed using special software. […]
(§2) In vitro studies using ^3H-cellobiose were performed with measurement of retained radioactivity after incubation and washing of the cultures using a beta counter.

[5] = system: bacteria; assay: In vitro uptake of radiolabeled sugar in bacterial cultures; format: cell-based, E. coli, S. aureus; details: FIGS. 1B-1C
Description: The inventors identified sugars and other molecules involved in the metabolic pathways of clinically-relevant fungal infections, and generated radiolabeled versions (3H or 14C) that were tested for in vitro uptake in bacteria (gram-negative, gram-positive, Pseudomonas aeruginosa), macrophages (J774 cell line) and m clinically-relevant fungal strains including Aspergillus, Rhizomucor, Cryptococcus and Candida albicans. Organisms and cells were exposed to the radiolabeled compounds and the in vitro uptake was measured (retained radioactivity after incubation and washing of the cultures measured using a beta counter). […] For the biodistribution and autoradiography studies showing specific uptake of the radioactive molecules by fungal-infected animals (i.e., retained radioactivity in the lungs in the infected animals but not in the control animals), the ligand(s) specific for each type of fungi was radiolabeled with 18F or other PET isotopes. Using the radiolabeled ligand(s), live PET imaging is performed on infected mice using a microPET/CT scanner. This is done by injecting the radioactive ligand intravenously through the tail vein and then positioning the animals inside the microPET/CT gantry and obtaining CT scan images as well as PET emission data. The images are reconstructed and analyzed using special software. […]

[6] = system: J774 macrophages; assay: In vitro uptake of radiolabeled sugar in macrophages / mammalian cells; format: cell-based; details: J774 cell line; FIG. 1D, FIG. 4B
Description: as §1, §2

[7] = system: A. fumigatus-infected lungs (nasopharyngeal model); assay: Organ biodistribution after injection of radiolabeled sugar in Aspergillus-infected mice; format: in vivo, mouse; details: infected vs uninfected controls / sterile lung inflammation, FIG. 2, FIG. 4C
Description: as §1, with “isotopes.” for “isotopes. Using the radiolabeled ligand(s), live PET imaging is performed on infected mice using a microPET/CT scanner.”
(§3) ex vivo experiments were performed, including biodistribution (injecting the animals with radiolabeled molecules followed by euthanasia, collection of organs and measurement of radioactivity) and autoradiography (sectioning of lung tissues from injected animals to measure residual radioactivity).

[8] = system: A. fumigatus infected mice; assay: Autoradiography of tissue sections from injected infected mice; format: in vivo, mouse; details: lung sections; nasopharyngeal inoculation model; FIG. 1F, FIG. 5A
Description: as §1, with “isotopes.” for “isotopes. Using the radiolabeled ligand(s), live PET imaging is performed on infected mice using a microPET/CT scanner.”
as §3, with “radioactivity). […]” for “radioactivity).”

[9] = system: pulmonary aspergillosis (Aspergillus lung infection); format: in vivo, mouse; details: for PET/CT uptake (SUV) in lungs of infected mice: 60-minute dynamic PET/CT, pulmonary aspergillosis model vs controls and poly (I:C) treated mice
Description: The inventors identified sugars and other molecules involved in the metabolic pathways of clinically-relevant fungal infections, and generated radiolabeled versions (3H or 14C) that were tested for in vitro uptake in bacteria (gram-negative, gram-positive, Pseudomonas aeruginosa), macrophages (J774 cell line) and m clinically-relevant fungal strains including Aspergillus, Rhizomucor, Cryptococcus and Candida albicans. Organisms and cells were exposed to the radiolabeled compounds and the in vitro uptake was measured (retained radioactivity after incubation and washing of the cultures measured using a beta counter). […] For the biodistribution and autoradiography studies showing specific uptake of the radioactive molecules by fungal-infected animals (i.e., retained radioactivity in the lungs in the infected animals but not in the control animals), the ligand(s) specific for each type of fungi was radiolabeled with 18F or other PET isotopes. Using the radiolabeled ligand(s), live PET imaging is performed on infected mice using a microPET/CT scanner. This is done by injecting the radioactive ligand intravenously through the tail vein and then positioning the animals inside the microPET/CT gantry and obtaining CT scan images as well as PET emission data. The images are reconstructed and analyzed using special software. To confirm specificity for fungal infection, in vivo uptake of the ligand(s) in animal models of sterile inflammation, as well as models of bacterial infection (gram positive and gram negative bacteria) are performed.
Three main mouse models were developed: (1) Aspergillus lung infection (nasopharyngeal administration of 30 μl suspension of Aspergillus conidia), (2) Aspergillus hematogenous spread (intravenous administration of 100 μl of fungal suspension via the tail vein) and (3) sterile lung inflammation model (induced by nasopharyngeal administration of 50-100 μg of poly (I:C) suspension in 30 μl of sterile PBS; poly(I:C) is a synthetic double stranded RNA which activates Toll-like receptors-3 (TLR3), thereby inducing signaling via multiple inflammatory pathways).
Standardized uptake values (SUVs) of ^18F-L-rhamnose in infected mice were then measured, and compared to animals with sterile lung inflammation (24 hours following post-pharyngeal poly (I:C) administration) and healthy controls.

C[C@H](O)[C@H](O)[C@@H](O)[C@@H](O)C=O [L-Rhamnose]
L-Rhamnose uptake in bacteria [1]: low
L-Rhamnose uptake in macrophages [2]: very low
L-Rhamnose uptake in P. aeruginosa [3]: very low

C[C@H](O)[C@H](O)[C@@H](O)[C@@H](O)C=O [^3H-L-Rhamnose]
in vitro retention/uptake of 3H-labeled sugar by A. fumigatus ([4]; retained radioactivity after incubation and washing, beta counter, FIG. 1A, FIG. 4A): significant retention
in vitro retention of 3H-L-Rhamnose by bacteria [5]: minimal retention
in vitro retention/uptake of 3H-labeled sugar by macrophages (mammalian cells) [6]: minimal retention
biodistribution: uptake in lungs of infected versus control mice [7]: uptake of ^3H-L-Rhamnose in the lungs of infected animals but not in uninfected controls; also recorded: increased uptake in the lungs of infected compared to control mice and mice with sterile lung inflammation
autoradiography: uptake in lungs of infected mice [8]: accumulation of ^3H-L-Rhamnose in the lungs of infected but not uninfected animals

C[C@H](O)[C@H](O)[C@@H](O)[C@@H]([18F])C=O [^18F-L-rhamnose, 2-deoxy-2-[^18F]fluororhamnose]
in vitro uptake of ^18F-L-rhamnose by A. fumigatus ([4]; live versus heat-killed cultures, FIG. 1E): specifically internalized by live A. fumigatus cultures when compared to heat-killed cultures
PET/CT uptake (SUV) in lungs of infected mice ([9]; FIG. 3A): slight higher uptake in lung lesions compared to controls and poly (I:C) treated mice
PET/CT uptake (SUV) in lungs of infected mice ([9]; FIG. 3A, listed as [^18F]-rhamnose): Increased uptake is seen in the lungs of nasopharyngeally-infected pulmonary IA (AF NP) mice
PET uptake in lungs of control or sterile lung inflammation mice ([9]; control and poly (I:C) mice, averaged 520-3520 seconds post injection, FIG. 3A): no appreciable uptake is seen in the lungs of control or sterile lung (poly (I:C)inflammation mice
washout of the ligand (time activity curve) ([9]; mouse, in vivo): relatively fast washout
